# Experimental data taken from US20090118202A1, “COMPOSITIONS AND METHODS OF TREATING HYPERTENSION WITH TANNIN COMPLEXES” (Texas Tech University, priority 2007, published 2009).
# Key:
# AT1 receptor = experiment: AT1 specific AngII binding in WB cells exposed to tannic acid; format: cell-based, rat; details: pretreatment of cells with the inhibitor
# Protocol: The present invention provides the use of hydrolysable tannic acids to affect angiotensin type 1 (AT1) receptor expression. The present invention used WB (i.e., a continuously passaged rat liver epithelial cell line) which expresses the native AT1 receptor. Under normal culture conditions, cells were exposed to tannic acid and changes in receptor expression and signaling intermediates were determined.
# FIG. 3A is an image of a plot illustrating the effects of tannic acid on native AT1, rat liver cells were exposed to tannic acid at indicated concentration for 20 hours.
# MAP-kinases p42 and p44 = experiment: MAP-kinase phosphorylation in rat liver cells exposed to tannic acid (Western blot); format: cell-based; details: pretreatment of cells with the inhibitor
# Protocol: FIGS. 6A-6C are images of a Western blot illustrating rat liver cells exposed to tannic acid in the presence or absence of the MAP-Kinase specific cell permeable inhibitor PD 98059 for 20 hours and total cell extracts were prepared. Equal amount of proteins were resolved by 8% polyacrylamide gel electrophoresis and immunoblotted with phospho-specific MAP-Kinase antibody in FIG. 6A, anti-MAP-kinase antibody in FIG. 6B, AT1 specific antibody in FIG. 6C top or anti-beta-actin antibody in FIG. 6C bottom. Immunoreactive bands were visualized using a chemiluminescence Western blotting system according to the manufacturer's instruction. In each plate protein concentration was determined using Bio-Rad protein assay reagent.
structure (smiles),measurement,setting,value
"COc1cccc(-c2cc(=O)c3ccccc3o2)c1N [MAP kinase specific inhibitor, PD98059]",prevention of tannic acid induced down regulation of the AT1 receptor,AT1 receptor,ineffective
same,prevention of tannic acid induced MAP-kinases phosphorylation,MAP-kinases p42 and p44,ineffective
